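GI50: concentration for 50% inhibition of growth. The concentration for full growth arrest is given as TGI.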 Residues, ends and D or L forms follow the SMILES beside them. *: point of attachment. Cbz = O=C(OCc1ccccc1)*
What was measured:
Experiment in all cases: NCI-60 cell line screen, 384-well format
[1] = system: 786-0 renal
[2] = system: A498 renal
[3] = system: A549 NSCLC
[4] = system: ACHN renal
[5] = system: CAKI-1 renal
[6] = system: CCRF-CEM leukemia
[7] = system: COLO 205 colon
[8] = system: DU-145 prostate
[9] = system: EKVX NSCLC
[10] = system: HCT-116 colon
[11] = system: HCT-15 colon
[12] = system: HL-60(TB) leukemia
[13] = system: HOP-62 NSCLC
[14] = system: HS 578T breast
[15] = system: HT29 colon
[16] = system: IGROV1 ovarian
[17] = system: KM12 colon
[18] = system: LOX IMVI melanoma
[19] = system: M14 melanoma
[20] = system: MALME-3M melanoma
[21] = system: MCF7 breast
[22] = system: MDA-MB-231 breast
[23] = system: MDA-MB-468 breast
[24] = system: MOLT-4 leukemia
[25] = system: NCI-H226 lung
[26] = system: NCI-H23 lung
[27] = system: NCI-H322M lung
[28] = system: NCI-H460 NSCLC
[29] = system: NCI-H522 lung
[30] = system: OVCAR-3 ovarian
[31] = system: OVCAR-5 ovarian
[32] = system: PC-3 prostate
[33] = system: RPMI-8226 leukemia
[34] = system: RXF 393 renal
[35] = system: SF-295 CNS
[36] = system: SF-539 CNS
[37] = system: SK-MEL-2 melanoma
[38] = system: SK-MEL-28 melanoma
[39] = system: SK-MEL-5 melanoma
[40] = system: SK-OV-3 ovarian
[41] = system: SN12C renal
[42] = system: SNB-75 CNS
[43] = system: SR leukemia
[44] = system: SW-620 colon
[45] = system: U251 glioblastoma
[46] = system: UACC-257 melanoma
[47] = system: UO-31 renal

CC(C)C[C@@H](C=O)NC(=O)[C@H](CC(C)C)NC(=O)[C@H](CC(C)C)NC(=O)OCc1ccccc1 (Cbz-Leu-Leu-Leu-aldehyde)
GI50 [1]: 180 nM | TGI [1]: 361 nM | GI50 [2]: 263 nM | TGI [2]: 796 nM | GI50 [3]: 427 nM | TGI [3]: 1690 nM | GI50 [4]: 202 nM | TGI [4]: 425 nM | GI50 [5]: 228 nM | TGI [5]: 676 nM | GI50 [6]: 114 nM | TGI [6]: 239 nM | GI50 [7]: 258 nM | TGI [7]: 714 nM | GI50 [8]: 212 nM | TGI [8]: 506 nM | GI50 [9]: 222 nM | TGI [9]: 534 nM | GI50 [10]: 146 nM | TGI [10]: 296 nM | GI50 [11]: 194 nM | TGI [11]: 362 nM | GI50 [12]: 171 nM | TGI [12]: 311 nM | GI50 [13]: 180 nM | TGI [13]: 339 nM | GI50 [14]: 121 nM | TGI [14]: 246 nM | GI50 [15]: 178 nM | TGI [15]: 335 nM | GI50 [16]: 184 nM | TGI [16]: 358 nM | GI50 [17]: 178 nM | TGI [17]: 326 nM | GI50 [18]: 158 nM | TGI [18]: 298 nM | GI50 [19]: 179 nM | TGI [19]: 324 nM | GI50 [20]: 155 nM | TGI [20]: 291 nM | GI50 [21]: 99.1 nM | TGI [21]: 603 nM | GI50 [22]: 177 nM | TGI [22]: 326 nM | GI50 [23]: 126 nM | TGI [23]: 253 nM | GI50 [24]: 74.8 nM | TGI [24]: 200 nM | GI50 [25]: 188 nM | TGI [25]: 372 nM | GI50 [26]: 163 nM | TGI [26]: 310 nM | GI50 [27]: 361 nM | TGI [27]: 1290 nM | GI50 [28]: 200 nM | TGI [28]: 380 nM | GI50 [29]: 85.8 nM | TGI [29]: 225 nM | GI50 [30]: 94 nM | TGI [30]: 225 nM | GI50 [31]: 213 nM | TGI [31]: 440 nM | GI50 [32]: 177 nM | TGI [32]: 325 nM | GI50 [33]: 30.1 nM | TGI [33]: 70.2 nM | GI50 [34]: 149 nM | TGI [34]: 283 nM | GI50 [35]: 192 nM | TGI [35]: 385 nM | GI50 [36]: 167 nM | TGI [36]: 307 nM | GI50 [37]: 134 nM | TGI [37]: 268 nM | GI50 [38]: 142 nM | TGI [38]: 280 nM | GI50 [39]: 215 nM | TGI [39]: 370 nM | GI50 [40]: 220 nM | TGI [40]: 538 nM | GI50 [41]: 177 nM | TGI [41]: 355 nM | GI50 [42]: 185 nM | TGI [42]: 351 nM | GI50 [43]: 24.7 nM | TGI [43]: 98 nM | GI50 [44]: 138 nM | TGI [44]: 275 nM | GI50 [45]: 211 nM | TGI [45]: 407 nM | GI50 [46]: 131 nM | TGI [46]: 263 nM | GI50 [47]: 179 nM | TGI [47]: 324 nM

Cc1[nH]nc2ncc(C(=O)N3CCC[C@H]3c3ccc(Cl)cc3)cc12
GI50 [1]: 52800 nM | TGI [1]: > 100000 nM | GI50 [2]: 39000 nM | TGI [2]: > 100000 nM | GI50 [3]: > 100000 nM | TGI [3]: > 100000 nM | GI50 [4]: 22100 nM | TGI [4]: 62000 nM | GI50 [5]: > 100000 nM | TGI [5]: > 100000 nM | GI50 [6]: 15600 nM | TGI [6]: 30600 nM | GI50 [7]: 33600 nM | TGI [7]: 83400 nM | GI50 [8]: > 100000 nM | TGI [8]: > 100000 nM | GI50 [9]: > 100000 nM | TGI [9]: > 100000 nM | GI50 [10]: 37200 nM | TGI [10]: > 100000 nM | GI50 [11]: > 78600 nM | TGI [11]: > 100000 nM | GI50 [12]: 19700 nM | TGI [12]: 34300 nM | GI50 [13]: > 54900 nM | TGI [13]: > 100000 nM | GI50 [14]: 41400 nM | TGI [14]: > 100000 nM | GI50 [15]: > 100000 nM | TGI [15]: > 100000 nM | GI50 [16]: 44700 nM | TGI [16]: > 100000 nM | GI50 [17]: 31500 nM | TGI [17]: > 85100 nM | GI50 [18]: 60600 nM | TGI [18]: > 100000 nM | GI50 [19]: > 100000 nM | TGI [19]: > 100000 nM | GI50 [20]: > 100000 nM | TGI [20]: > 100000 nM | GI50 [21]: 31800 nM | TGI [21]: > 100000 nM | GI50 [22]: > 100000 nM | TGI [22]: > 100000 nM | GI50 [23]: 21200 nM | TGI [23]: 68500 nM | GI50 [24]: 25500 nM | TGI [24]: > 72700 nM | GI50 [25]: 39100 nM | TGI [25]: > 100000 nM | GI50 [26]: 36600 nM | TGI [26]: > 100000 nM | GI50 [27]: > 100000 nM | TGI [27]: > 100000 nM | GI50 [28]: 60400 nM | TGI [28]: > 100000 nM | GI50 [29]: 21300 nM | TGI [29]: > 100000 nM | GI50 [30]: 26100 nM | TGI [30]: 99800 nM | GI50 [31]: > 100000 nM | TGI [31]: > 100000 nM | GI50 [32]: 48900 nM | TGI [32]: > 100000 nM | GI50 [33]: 54500 nM | TGI [33]: > 100000 nM | GI50 [34]: 19700 nM | TGI [34]: 46700 nM | GI50 [35]: 55200 nM | TGI [35]: > 100000 nM | GI50 [36]: > 91400 nM | TGI [36]: > 100000 nM | GI50 [37]: 25300 nM | TGI [37]: 77500 nM | GI50 [38]: > 100000 nM | TGI [38]: > 100000 nM | GI50 [39]: 50800 nM | TGI [39]: > 100000 nM | GI50 [40]: > 100000 nM | TGI [40]: > 100000 nM | GI50 [41]: > 100000 nM | TGI [41]: > 100000 nM | GI50 [42]: > 78100 nM | TGI [42]: > 100000 nM | GI50 [43]: 11700 nM | TGI [43]: 25000 nM | GI50 [44]: 30900 nM | TGI [44]: > 79600 nM | GI50 [45]: 51700 nM | TGI [45]: > 100000 nM | GI50 [46]: > 100000 nM | TGI [46]: > 100000 nM | GI50 [47]: 46600 nM | TGI [47]: > 100000 nM
